This is an account of results in ChEMBL document CHEMBL1133518, “5-[1'-(2'-N-Arylsulfonyl-1',2',3',4'-tetrahydroisoquinolyl)]-4, 5-dihydro-2(3H)-furanones: positive allosteric modulators of the GABA(A) receptor with a new mode of action” (J Med Chem, 2000).

Active and inactive are the calls of the source. The calls are words filed in the database; no cut-off is given here.

The term IC50 denotes the midpoint of a concentration-inhibition curve.

In experiment [1] the target is T1, GABA-A receptor; alpha-1/beta-2/gamma-2 (Rattus norvegicus) (UniProt P18508+P62813+P63138). As to the kind of experiment: Percent stimulation of Cl- current in Xenopus laevis oocytes expressing rat GABA-A alpha-1-beta-2-gamma-2 subunits at 100 uM. In kind it is functional, cell-based. The note with it: Oocyte.
Experiment [2] deals with T2, GABA-A receptor; anion channel (Rattus norvegicus) (UniProt O09028+P15431+P18506+P18508+P19969+P20236+P23574+P23576+P28471+P28473+P30191+P62813+P63079+P63138+Q91ZM7+Q9ES14). In words: In vitro displacement of [3H]muscimol from Gamma-aminobutyric acid A receptor of rat brain membranes, slight stimulation activity. The format is cell membranes. To be noted: Membrane.
Experiment [3] has as its target T2, GABA-A receptor; anion channel (Rattus norvegicus). In words: (§1) Displacement of [3H]flunitrazepam from GABA-A receptor of rat cerebellum. In kind it is tissue-based. Further details: concentration or dose not given beside the values.
The target is the same in experiment [4]. In words: (§2) Displacement of [3H]flunitrazepam from GABA-A receptor of rat forebrain. Further details: concentration or dose not given beside the values.
The target is the same in experiment [5]. In words: In vitro displacement of [35S]TBPS from Gamma-aminobutyric acid A receptor of rat brain membranes. The format is cell membranes. Further details: concentration or dose not given beside the values. The note with it: Membrane. Background: Displacement assays read how much labelled ligand stays bound in the presence of the test substance.
Experiment [6] has the same target. In words: In vitro displacement of [3H]muscimol from Gamma-aminobutyric acid A receptor of rat brain membranes. The format is cell membranes. The note with it: Membrane.
Experiment [7] has the same target. In words: In vitro displacement of [3H]muscimol from Gamma-aminobutyric acid A receptor of rat brain membranes (15% stimulation). The format is cell membranes. The note with it: Membrane.
For experiment [8], the target named is GABA-A receptor; anion channel. Described as §1. The format is tissue-based.
Experiment [9] concerns the target GABA-A receptor; anion channel. Described as §2.
Experiment [10] addresses T2, GABA-A receptor; anion channel (Rattus norvegicus). As to the kind of experiment: In vitro displacement of [3H]muscimol from Gamma-aminobutyric acid A receptor of rat brain membranes, range 5-10% stimulation. The format is cell membranes. The note with it: Membrane.
Experiment [11] addresses T1, GABA-A receptor; alpha-1/beta-2/gamma-2 (Rattus norvegicus). As to the kind of experiment: Percent stimulation of 5-alpha-pregnan-3-alpha-ol-20-one elicited Cl- current in Xenopus laevis oocytes expressing rat GABA-A alpha-1-beta-2-gamma-2 subunits at 30 uM. The note with it: Oocyte. The format is functional, cell-based.
The target is the same in experiment [12]. In words: Percent stimulation of pentobarbital elicited Cl- current in Xenopus laevis oocytes expressing rat GABA-A alpha-1-beta-2-gamma-2 subunits at 30 uM. The format is functional, cell-based. To be noted: Oocyte.

For `CN(C)S(=O)(=O)N1CCc2ccccc2[C@@H]1[C@H]1CCC(=O)O1`, in experiment [1], the Stimulation was 62%. In addition, in [2], the Displacement result was “inactive”. The Displacement in experiment [3] is 20%; in experiment [4] it was 20%; in experiment [5] it was 0%.
In the case of `CS(=O)(=O)N1CCc2ccccc2[C@@H]1[C@H]1CCC(=O)O1`, the Stimulation in [1] came to 32%. Besides, the Displacement in experiment [3] stood at 26%; in experiment [4], 20%; in experiment [5], 0%; in experiment [6], 0%.
Turning to `O=C1CC[C@H]([C@H]2c3ccccc3CCN2S(=O)(=O)c2ccc(C(F)(F)F)cc2)O1`, in experiment [1], the Stimulation came to 90%. Also, the Displacement in experiment [3] is 42%; in [4] it was 30%; in experiment [5] it was 0%; in experiment [6], 0%.
The molecule `O=C1CC[C@H]([C@H]2c3ccccc3CCN2S(=O)(=O)c2ccc3ccccc3c2)O1` had a Stimulation in experiment [1] of 118%. Further, the Displacement in experiment [3] stood at 14%; in experiment [4], 9%; in experiment [5], 0%; in experiment [7], 15%.
Consider `O=C1CC[C@H]([C@H]2c3ccccc3CCN2S(=O)(=O)c2cccs2)O1`, for which the Stimulation in experiment [1] was found to be 353%. Further, the Displacement in [3] worked out at 66%; in experiment [4], 47%; in experiment [5] it was 25%; in experiment [6] it was 0%.
In [1], `O=C1CC[C@H]([C@H]2c3ccccc3CCN2C(=O)OCc2ccccc2)O1` (racemic) had a Stimulation of 351%. Also, the Displacement in experiment [5] and in experiment [6] was 0% in each case. The IC50 in experiment [8] amounted to 60 nM; in [9], 160 nM.
With `Cc1ccc(S(=O)(=O)N2CCc3ccccc3[C@@H]2[C@H]2CCC(=O)O2)cc1` (racemic), the Stimulation in experiment [1] is 579%. Further, the Displacement came to 10% in [10], 66% in [3], 49% in [4] and 15% in [5].
`O=C1CC[C@H]([C@H]2c3ccccc3CCN2S(=O)(=O)c2ccc(Cl)cc2)O1` (racemic): in experiment [1], the Stimulation is 479%. In addition, the Displacement result in experiment [2] was “inactive”. Besides, the Displacement was 43% in experiment [3], 30% in [4] and 60% in experiment [5].
The molecule `O=C1CC[C@H]([C@H]2c3ccccc3CCN2S(=O)(=O)c2ccccc2)O1` (racemic) gave a Stimulation in [1] of 423%. In experiment [2], the Displacement result is “inactive”. The figures for the Displacement in experiment [3], in experiment [4] and in experiment [5] were 74%, 66% and 50%, respectively.
For the molecule `Cc1ccc(S(=O)(=O)N2CCc3ccccc3[C@@H]2[C@H]2CCC(=O)O2)cc1` (stereo in doubt), the Stimulation in [1] came out at 859%; in experiment [11], 644%; in experiment [12] it was 588%. Also, the figures for the Displacement in experiment [3] and in experiment [4] were 67% and 49%, respectively.
Molecule `Cc1ccc(S(=O)(=O)N2CCc3ccccc3[C@@H]2[C@H]2CCC(=O)O2)cc1` (stereo in doubt; 2c) displayed a Stimulation in [1] of 184%. The Displacement in experiment [3] was 61%; in experiment [4], 35%.
